This note sets out measurements from ChEMBL document CHEMBL1201862, “PubChem BioAssay data set” (2004).

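Step 1: Grow cells in 96-well plates. Step 2: Expose to compound for 48 hours at 5 concentrations. Step 3: Interpolate endpoints linearly; if unreached, use highest concentration. GI50 is the concentration that inhibits growth by half.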 Calls of active or inactive are those of the source. Cut-off read from the data, not from the text of the source: active = GI50 up to about 1.1 µM and inactive = higher.

Test systems include CAKI-1; HOP-92; MDA-N; HCT-15; BT-549; U-251; 786-0; OVCAR-3; TK-10; M14; OVCAR-4; PC-3; IGROV-1; HT-29; SF-295; SR; HCT-116; MDA-MB-435; Malme-3M; NCI-H226.
Holding throughout (assay): NCI-60 cell line screen, 48 h

`COc1ccc(CN(CCc2c[nH]c3ccccc23)Cc2ccc(OC)cc2)cc1`: the GI50 with CAKI-1 is 3.94 µM (inactive); with HOP-92, 3.29 µM (inactive); in the assay with MDA-N, 1.92 µM (inactive); in the assay on HCT-15, 3.44 µM; in the assay on BT-549 it was 5.71 µM (inactive); in the assay with U-251, 5.81 µM (inactive). Also, the GI50 in the assay on 786-0 is 3.08 µM (inactive); in the assay on OVCAR-3, 3.23 µM (inactive); in the assay on TK-10, 1.29 µM (inactive); with M14 it was 2.8 µM (inactive); in the assay on OVCAR-4, 3.88 µM (inactive); with PC-3, 3.66 µM (inactive). Also, the GI50 in the assay on IGROV-1 was 1.8 µM (inactive); in the assay with HT-29, 1.29 µM (inactive); in the assay with SF-295, 1.15 µM (inactive); with SR, 7.57 µM (inactive); in the assay on HCT-116, 0.83 µM (active); in the assay with MDA-MB-435 it was 2.76 µM (inactive). Further, the GI50 in the assay with Malme-3M is 3.04 µM (inactive); with NCI-H226 it was 1.37 µM (inactive).
As to `O=C(CCN1CCCCC1)N1CCc2c([nH]c3ccccc23)C1c1cccnc1` (stereo not given), the GI50 was > 73.6 µM (inactive) with CAKI-1; 29.7 µM (inactive) with HOP-92; 28.1 µM (inactive) in the assay with MDA-N; 85.5 µM in the assay on HCT-15; > 61.8 µM (inactive) with BT-549; 80 µM (inactive) with U-251. Besides, the GI50 in the assay on 786-0 is 38.6 µM (inactive); in the assay on OVCAR-3 it was > 100 µM (inactive); in the assay with TK-10, 68.9 µM (inactive); with M14, 22.9 µM (inactive); in the assay with OVCAR-4, > 91 µM (inactive); in the assay on PC-3, 57 µM (inactive). In addition, the GI50 was > 92 µM (inactive) with IGROV-1; 32.4 µM (inactive) in the assay with HT-29; 37.5 µM (inactive) in the assay on SF-295; 41.5 µM (inactive) in the assay with SR; 61.8 µM (inactive) with HCT-116; 35.5 µM (inactive) with MDA-MB-435. For the same compound, the GI50 with Malme-3M was 20.8 µM (inactive); in the assay on NCI-H226, > 91.8 µM (inactive).
For the compound `CN(C)c1nncc2[nH]nnc12`, the GI50 in the assay on CAKI-1 is > 100 µM (inactive); in the assay with HOP-92, > 100 µM (inactive); with MDA-N, > 100 µM (inactive); in the assay with HCT-15, above 100 µM; in the assay with BT-549, > 100 µM (inactive); in the assay with U-251, > 100 µM (inactive). The GI50 in the assay on 786-0, in the assay with OVCAR-3, in the assay with TK-10, with M14, in the assay with OVCAR-4 and in the assay with PC-3 was > 100 µM (inactive) each time. Also, the GI50 with IGROV-1, with HT-29, in the assay on SF-295, in the assay with SR, in the assay with HCT-116 and in the assay on MDA-MB-435 was > 100 µM (inactive) throughout. Also, the GI50 in the assay with Malme-3M was 92.3 µM (inactive); in the assay on NCI-H226 it was > 100 µM (inactive).
With `CC(C)(C)OC(=O)NCC(c1c[nH]c2ccccc12)c1c[nH]c2ccccc12`, the GI50 is 14.5 µM (inactive) with CAKI-1; 13.1 µM (inactive) in the assay with HOP-92; 17.5 µM (inactive) in the assay on MDA-N; 20.8 µM with HCT-15; 18.9 µM (inactive) in the assay on BT-549; 16.1 µM (inactive) in the assay with U-251. Besides, the GI50 with 786-0 is 16.1 µM (inactive); in the assay with OVCAR-3 it was 15.3 µM (inactive); in the assay on TK-10, 15.5 µM (inactive); in the assay on M14 it was 14.9 µM (inactive); with OVCAR-4, 12.9 µM (inactive); in the assay with PC-3, 15.8 µM (inactive). In addition, the GI50 with IGROV-1 is 12.3 µM (inactive); in the assay with HT-29, 15.1 µM (inactive); in the assay on SF-295, 15.6 µM (inactive); with SR it was 14.9 µM (inactive); in the assay on HCT-116, 16 µM (inactive); with MDA-MB-435, 15.7 µM (inactive). For the same compound, the GI50 with Malme-3M is 17.7 µM (inactive); in the assay on NCI-H226, 21 µM (inactive).
As to `Cc1ccc(S(=O)(=O)N2CCC(=O)c3cc(Br)ccc32)cc1`, the GI50 was 11.8 µM (inactive) with CAKI-1; 18.6 µM (inactive) in the assay with HOP-92; 3.01 µM (inactive) in the assay with MDA-N; 4.88 µM with HCT-15; 13.9 µM (inactive) in the assay with BT-549; 3.72 µM (inactive) in the assay on U-251. Besides, the GI50 in the assay with 786-0 was 10.1 µM (inactive); in the assay with OVCAR-3, 9.93 µM (inactive); with TK-10 it was 10.7 µM (inactive); with M14, 5.06 µM (inactive); in the assay with OVCAR-4 it was 16.8 µM (inactive); in the assay with PC-3, 6.01 µM (inactive). Further, the GI50 is 6.1 µM (inactive) in the assay on IGROV-1; 6.25 µM (inactive) in the assay on HT-29; 10.1 µM (inactive) in the assay with SF-295; 3.96 µM (inactive) in the assay on SR; 4.72 µM (inactive) in the assay with HCT-116; 1.79 µM (inactive) in the assay on MDA-MB-435. For the same compound, the GI50 is 22 µM (inactive) in the assay on Malme-3M and 37.7 µM (inactive) in the assay on NCI-H226.
As to `COc1cc2c(cc1[N+](=O)[O-])C(=O)C(Br)(Br)CCC2`, the GI50 in the assay with CAKI-1 was 2.92 µM (inactive); with HOP-92, 4.46 µM (inactive); with MDA-N, 3.09 µM (inactive); in the assay on HCT-15, 1.66 µM; in the assay on BT-549 it was 2.12 µM (inactive); in the assay on U-251, 2.23 µM (inactive). Moreover, the GI50 is 1.26 µM (inactive) in the assay with 786-0; 3.51 µM (inactive) with OVCAR-3; 2.54 µM (inactive) in the assay on TK-10; 2.12 µM (inactive) in the assay on M14; 4.62 µM (inactive) in the assay on OVCAR-4; 5 µM (inactive) with PC-3. In addition, the GI50 with IGROV-1 is 0.955 µM (active); in the assay with HT-29 it was 4.88 µM (inactive); in the assay with SF-295 it was 6.52 µM (inactive); in the assay with SR, 0.743 µM (active); in the assay on HCT-116, 0.697 µM (active); with MDA-MB-435 it was 2.81 µM (inactive). In addition, the GI50 is 2.13 µM (inactive) in the assay with Malme-3M and 3.47 µM (inactive) in the assay with NCI-H226.
Consider `N/C(=N\c1ccc(Cl)cc1)c1ccccc1N`, for which the GI50 in the assay on CAKI-1 is > 100 µM (inactive); in the assay with HOP-92 it was 3.82 µM (inactive); in the assay with MDA-N, > 100 µM (inactive); in the assay on HCT-15 it was above 100 µM; in the assay on BT-549 it was > 100 µM (inactive); in the assay on U-251, > 100 µM (inactive). In addition, the GI50 with 786-0, with OVCAR-3, in the assay with TK-10, in the assay with M14, with OVCAR-4 and with PC-3 was > 100 µM (inactive) each time. Further, the GI50 in the assay with IGROV-1, with HT-29, in the assay on SF-295, in the assay on SR, with HCT-116 and with MDA-MB-435 was > 100 µM (inactive) throughout. Further, the GI50 in the assay with Malme-3M and in the assay on NCI-H226 was > 100 µM (inactive) each time.
